Activity calls are given as the source filed them. No cut-off for these calls is given here.
Columns and labels:
OVCAR-8 = assay: Growth inhibition of human OVCAR8 cells assessed as cell growth at 10 uM incubated for 48 hrs by sulforhodamine B assay; assay type: functional; settings: OVCAR-8, 48 h, read-out: Activity
ACHN = assay: Growth inhibition of human ACHN cells assessed as cell growth at 10 uM incubated for 48 hrs by sulforhodamine B assay; assay type: functional; settings: read-out: Activity
[1] = biological target: Serine-protein kinase ATM (Homo sapiens) (UniProt Q13315); assay: Inhibition of ATM in human U2OS cells assessed as reduction in hydroxyurea-induced H2AX phosphorylation at Ser139 residue at 3 to 10 uM preincubated for 1 hr followed by hydroxyurea challenge measured after 2 hrs by Western blot analysis; assay type: cell-based
UO-31 = assay: Growth inhibition of human UO31 cells assessed as cell growth at 10 uM incubated for 48 hrs by sulforhodamine B assay; assay type: functional; settings: UO-31, 48 h, read-out: Activity
HT-29 = assay: Growth inhibition of human HT-29 cells assessed as cell growth at 10 uM incubated for 48 hrs by sulforhodamine B assay; assay type: functional; settings: HT-29, 48 h, read-out: Activity
SF-295 = assay: Growth inhibition of human SF295 cells assessed as cell growth at 10 uM incubated for 48 hrs by sulforhodamine B assay; assay type: functional; settings: SF-295, 48 h, read-out: Activity
TK-10 = assay: Growth inhibition of human TK10 cells assessed as cell growth at 10 uM incubated for 48 hrs by sulforhodamine B assay; assay type: functional; settings: TK-10, 48 h, read-out: Activity
HCT-15 = assay: Growth inhibition of human HCT15 cells assessed as cell growth at 10 uM incubated for 48 hrs by sulforhodamine B assay; assay type: functional; settings: HCT-15, 48 h, read-out: Activity
HL-60(TB) = assay: Growth inhibition of human HL-60(TB) cells assessed as cell growth at 10 uM incubated for 48 hrs by sulforhodamine B assay; assay type: functional; settings: HL-60, 48 h, read-out: Activity
NCI-H460 = assay: Growth inhibition of human NCI-H460 cells assessed as cell growth at 10 uM incubated for 48 hrs by sulforhodamine B assay; assay type: functional; settings: NCI-H460, 48 h, read-out: Activity
OVCAR-4 = assay: Growth inhibition of human OVCAR4 cells assessed as cell growth at 10 uM incubated for 48 hrs by sulforhodamine B assay; assay type: functional; settings: OVCAR-4, 48 h, read-out: Activity
[2] = biological target: Serine/threonine-protein kinase ATR (Homo sapiens) (UniProt Q13535); assay: Inhibition of ATR in human U2OS cells assessed as reduction in hydroxyurea-induced Chk-1 phosphorylation at Ser345 residue by measuring ratio of GAPDH level to phosphorylated Chk-1 level at 10 uM preincubated for 1 hr followed by hydroxyurea challenge measured after 2 hrs by Western blot analysis; assay type: cell-based
[3] = biological target: Serine/threonine-protein kinase ATR (Homo sapiens) (UniProt Q13535); assay: Inhibition of ATR in human U2OS cells assessed as reduction in hydroxyurea-induced H2AX phosphorylation at Ser139 residue at 3 to 10 uM preincubated for 1 hr followed by hydroxyurea challenge measured after 2 hrs by Western blot analysis; assay type: cell-based
Malme-3M = assay: Growth inhibition of human MALME-3M cells assessed as cell growth at 10 uM incubated for 48 hrs by sulforhodamine B assay; assay type: functional; settings: read-out: Activity
[4] = biological target: Serine/threonine-protein kinase ATR (Homo sapiens) (UniProt Q13535); assay: Inhibition of ATR in human Ramos cells assessed as reduction in […] at 10 uM after 48 hrs by Western blot analysis; assay type: cell-based
NCI-H23 = assay: Growth inhibition of human NCI-H23 cells assessed as cell growth at 10 uM incubated for 48 hrs by sulforhodamine B assay; assay type: functional; settings: NCI-H23, 48 h, read-out: Activity
MOLT-4 = assay: Growth inhibition of human MOLT4 cells assessed as cell growth at 10 uM incubated for 48 hrs by sulforhodamine B assay; assay type: functional; settings: MOLT-4, 48 h, read-out: Activity
IGROV-1 = assay: Growth inhibition of human IGROV1 cells assessed as cell growth at 10 uM incubated for 48 hrs by sulforhodamine B assay; assay type: functional; settings: IGROV-1, 48 h, read-out: Activity
BT-549 = assay: Growth inhibition of human BT549 cells assessed as cell growth at 10 uM incubated for 48 hrs by sulforhodamine B assay; assay type: functional; settings: BT-549, 48 h, read-out: Activity
KM12 = assay: Growth inhibition of human KM12 cells assessed as cell growth at 10 uM incubated for 48 hrs by sulforhodamine B assay; assay type: functional; settings: KM12, 48 h, read-out: Activity
786-0 = assay: Growth inhibition of human 786-0 cells assessed as cell growth at 10 uM incubated for 48 hrs by sulforhodamine B assay; assay type: functional; settings: 786-0, 48 h, read-out: Activity
SNB-19 = assay: Growth inhibition of human SNB19 cells assessed as cell growth at 10 uM incubated for 48 hrs by sulforhodamine B assay; assay type: functional; settings: SNB-19, 48 h, read-out: Activity
SR = assay: Growth inhibition of human SR cells assessed as cell growth at 10 uM incubated for 48 hrs by sulforhodamine B assay; assay type: functional; settings: read-out: Activity
SK-MEL-28 = assay: Growth inhibition of human SK-MEL-28 cells assessed as cell growth at 10 uM incubated for 48 hrs by sulforhodamine B assay; assay type: functional; settings: SK-MEL-28, 48 h, read-out: Activity
HOP-92 = assay: Growth inhibition of human HOP92 cells assessed as cell growth at 10 uM incubated for 48 hrs by sulforhodamine B assay; assay type: functional; settings: HOP-92, 48 h, read-out: Activity
UACC-257 = assay: Growth inhibition of human UACC257 cells assessed as cell growth at 10 uM incubated for 48 hrs by sulforhodamine B assay; assay type: functional; settings: UACC-257, 48 h, read-out: Activity
UACC-62 = assay: Growth inhibition of human UACC62 cells assessed as cell growth at 10 uM incubated for 48 hrs by sulforhodamine B assay; assay type: functional; settings: UACC-62, 48 h, read-out: Activity
NCI-H522 = assay: Growth inhibition of human NCI-H522 cells assessed as cell growth at 10 uM incubated for 48 hrs by sulforhodamine B assay; assay type: functional; settings: NCI-H522, 48 h, read-out: Activity
SW-620 = assay: Growth inhibition of human SW620 cells assessed as cell growth at 10 uM incubated for 48 hrs by sulforhodamine B assay; assay type: functional; settings: SW-620, 48 h, read-out: Activity
[5] = biological target: Serine/threonine-protein kinase ATR (Homo sapiens) (UniProt Q13535); assay: Inhibition of ATR in human U2OS cells assessed as reduction in hydroxyurea-induced Chk-1 phosphorylation at Ser345 residue preincubated for 1 hr followed by hydroxyurea challenge measured after 2 hrs by Western blot analysis; assay type: cell-based
CCRF-CEM = assay: Growth inhibition of human CCRF-CEM cells assessed as cell growth at 10 uM incubated for 48 hrs by sulforhodamine B assay; assay type: functional; settings: read-out: Activity
T47D = assay: Growth inhibition of human T47D cells assessed as cell growth at 10 uM incubated for 48 hrs by sulforhodamine B assay; assay type: functional; settings: read-out: Activity
NCI-H322M = assay: Growth inhibition of human NCI-H322M cells assessed as cell growth at 10 uM incubated for 48 hrs by sulforhodamine B assay; assay type: functional; settings: read-out: Activity
K562 = assay: Growth inhibition of human K562 cells assessed as cell growth at 10 uM incubated for 48 hrs by sulforhodamine B assay; assay type: functional; settings: K562, 48 h, read-out: Activity

Chain of Serine/threonine-protein kinase ATR (Homo sapiens) (Q13535 whole entry, looked up): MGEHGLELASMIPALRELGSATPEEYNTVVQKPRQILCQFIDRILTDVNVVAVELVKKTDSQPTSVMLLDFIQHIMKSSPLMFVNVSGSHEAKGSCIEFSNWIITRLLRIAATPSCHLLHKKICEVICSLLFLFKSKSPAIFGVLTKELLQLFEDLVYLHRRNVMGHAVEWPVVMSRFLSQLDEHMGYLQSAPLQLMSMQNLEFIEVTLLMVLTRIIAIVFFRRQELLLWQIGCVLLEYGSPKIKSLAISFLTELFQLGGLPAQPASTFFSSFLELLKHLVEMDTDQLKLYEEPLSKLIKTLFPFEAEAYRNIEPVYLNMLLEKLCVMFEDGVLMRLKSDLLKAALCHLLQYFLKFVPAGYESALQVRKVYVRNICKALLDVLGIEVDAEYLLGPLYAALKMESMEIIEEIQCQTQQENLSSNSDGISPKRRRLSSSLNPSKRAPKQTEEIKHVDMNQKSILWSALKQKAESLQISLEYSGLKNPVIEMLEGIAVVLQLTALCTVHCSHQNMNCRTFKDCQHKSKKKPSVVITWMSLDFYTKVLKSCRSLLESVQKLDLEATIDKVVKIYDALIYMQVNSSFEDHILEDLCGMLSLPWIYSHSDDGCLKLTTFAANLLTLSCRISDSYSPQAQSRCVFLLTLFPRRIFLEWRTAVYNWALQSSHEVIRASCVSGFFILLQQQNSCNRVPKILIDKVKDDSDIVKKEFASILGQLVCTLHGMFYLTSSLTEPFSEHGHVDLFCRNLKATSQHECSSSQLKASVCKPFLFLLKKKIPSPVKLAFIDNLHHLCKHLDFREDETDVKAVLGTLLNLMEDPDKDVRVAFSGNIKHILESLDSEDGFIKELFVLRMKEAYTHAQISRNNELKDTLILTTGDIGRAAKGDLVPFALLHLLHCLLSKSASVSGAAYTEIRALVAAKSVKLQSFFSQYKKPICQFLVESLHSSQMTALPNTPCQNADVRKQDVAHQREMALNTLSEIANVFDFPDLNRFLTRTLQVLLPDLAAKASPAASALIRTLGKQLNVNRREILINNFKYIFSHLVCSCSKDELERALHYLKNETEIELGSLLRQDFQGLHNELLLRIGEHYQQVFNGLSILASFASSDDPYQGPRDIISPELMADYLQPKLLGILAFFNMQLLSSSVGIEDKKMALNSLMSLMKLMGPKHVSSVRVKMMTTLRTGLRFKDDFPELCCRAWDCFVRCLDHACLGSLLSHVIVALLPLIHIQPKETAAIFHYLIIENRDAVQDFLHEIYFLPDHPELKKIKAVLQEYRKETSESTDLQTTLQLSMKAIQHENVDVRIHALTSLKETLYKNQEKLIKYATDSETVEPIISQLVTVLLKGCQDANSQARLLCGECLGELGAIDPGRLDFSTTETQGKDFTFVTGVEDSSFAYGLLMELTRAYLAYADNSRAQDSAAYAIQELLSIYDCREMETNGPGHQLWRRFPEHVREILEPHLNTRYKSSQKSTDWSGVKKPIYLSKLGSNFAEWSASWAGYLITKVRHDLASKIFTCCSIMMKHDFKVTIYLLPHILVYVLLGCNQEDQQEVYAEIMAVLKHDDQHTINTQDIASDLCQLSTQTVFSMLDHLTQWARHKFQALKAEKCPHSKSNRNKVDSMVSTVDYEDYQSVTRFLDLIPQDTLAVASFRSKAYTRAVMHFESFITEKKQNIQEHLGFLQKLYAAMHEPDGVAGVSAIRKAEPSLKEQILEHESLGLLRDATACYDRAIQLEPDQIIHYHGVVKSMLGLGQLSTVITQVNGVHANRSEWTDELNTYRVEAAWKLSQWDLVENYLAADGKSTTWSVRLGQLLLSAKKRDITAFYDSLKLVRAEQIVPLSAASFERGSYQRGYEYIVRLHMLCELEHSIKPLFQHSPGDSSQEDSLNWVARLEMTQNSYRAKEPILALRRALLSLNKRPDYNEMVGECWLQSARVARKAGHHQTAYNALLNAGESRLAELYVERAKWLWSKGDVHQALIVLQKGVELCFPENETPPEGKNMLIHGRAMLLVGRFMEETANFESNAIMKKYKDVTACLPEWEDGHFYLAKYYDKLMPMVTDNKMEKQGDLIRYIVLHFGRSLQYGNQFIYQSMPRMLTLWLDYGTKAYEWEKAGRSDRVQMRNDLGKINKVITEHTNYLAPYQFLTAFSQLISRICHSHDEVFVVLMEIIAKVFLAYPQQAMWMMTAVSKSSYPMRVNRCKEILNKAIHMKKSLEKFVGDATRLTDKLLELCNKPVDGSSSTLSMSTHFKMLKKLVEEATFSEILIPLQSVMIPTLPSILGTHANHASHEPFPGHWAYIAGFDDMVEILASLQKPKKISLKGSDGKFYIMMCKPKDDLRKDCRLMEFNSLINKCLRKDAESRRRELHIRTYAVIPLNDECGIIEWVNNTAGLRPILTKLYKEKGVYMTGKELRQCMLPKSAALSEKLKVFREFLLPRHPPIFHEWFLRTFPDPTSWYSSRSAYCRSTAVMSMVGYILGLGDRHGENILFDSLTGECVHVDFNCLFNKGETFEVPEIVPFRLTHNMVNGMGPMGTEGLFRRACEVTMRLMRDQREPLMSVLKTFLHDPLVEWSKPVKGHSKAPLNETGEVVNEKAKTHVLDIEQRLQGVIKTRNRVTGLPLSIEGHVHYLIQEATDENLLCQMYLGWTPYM

Compound	growth at 10 µM (OVCAR-8)	growth at 10 µM (ACHN)	inhibition [1]	growth at 10 µM (UO-31)	growth at 10 µM (HT-29)	growth at 10 µM (SF-295)	growth at 10 µM (TK-10)	growth at 10 µM (HCT-15)	growth at 10 µM (HL-60(TB))	growth at 10 µM (NCI-H460)	growth at 10 µM (OVCAR-4)	Ratio [2]	inhibition [3]	growth at 10 µM (Malme-3M)	inhibition [4]	growth at 10 µM (NCI-H23)	growth at 10 µM (MOLT-4)	growth at 10 µM (IGROV-1)	growth at 10 µM (BT-549)	growth at 10 µM (KM12)	further results
CS(=O)(=NC#N)c1ccc(-c2cnc(N)c(C(=O)Nc3ccccc3)n2)cc1 (stereo not drawn)	96.8%	51.4%	inactive	48.1%	79.9%	99.2%	97.4%	63.2%	108%	83.9%	97%	43.1	Dose-dependent effect	127%	Active	81.2%	64.7%	59.8%	73.4%	78.2%	growth at 10 µM (786-0): 45.5%; growth at 10 µM (SNB-19): 105%; growth at 10 µM (SR): 44%; growth at 10 µM (SK-MEL-28): 111%; growth at 10 µM (HOP-92): 106%; growth at 10 µM (UACC-257): 102%; growth at 10 µM (UACC-62): 74.7%; growth at 10 µM (NCI-H522): 86.8%; growth at 10 µM (SW-620): 109%; inhibition [5]: Dose-dependent effect; growth at 10 µM (CCRF-CEM): 79.9%; growth at 10 µM (T47D): 99%; growth at 10 µM (NCI-H322M): 78.6%; growth at 10 µM (K562): 70.8%
C/S(=N\C#N)c1ccc(-c2cnc(N)c(C(=O)Nc3ccccc3)n2)cc1 (stereo not drawn)	102%	54%	inactive	49.1%	76.3%	114%	93.6%	64.2%	79.2%	87.4%	87.3%	22.5	Dose-dependent effect	80%	Active	98.2%	74.5%	56.9%	83.5%	86.5%	growth at 10 µM (786-0): 59.5%; growth at 10 µM (SNB-19): 104%; growth at 10 µM (SR): 57.1%; growth at 10 µM (SK-MEL-28): 97.4%; growth at 10 µM (HOP-92): 93.4%; growth at 10 µM (UACC-257): 106%; growth at 10 µM (UACC-62): 82.2%; growth at 10 µM (NCI-H522): 77.2%; growth at 10 µM (SW-620): 85.9%; inhibition [5]: Dose-dependent effect; growth at 10 µM (CCRF-CEM): 83.5%; growth at 10 µM (T47D): 82.9%; growth at 10 µM (NCI-H322M): 71.3%; growth at 10 µM (K562): 62.2%
